Assays:
Assay in all cases: normalised response (% of control), CellTiter-Glo; higher = more viable cells (100 = DMSO, 0 = benzethonium chloride kill control)
Settings in all cases: incubation time: 72 h
MDA-MB-436 = test system: MDA-MB-436
Summary of the method: (§1)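 Plates were normalised with 0.1 % DMSO as 100 and a positive kill control as 0. Breast cancer cell lines in 20 µl suspension had been seeded into 384-well plates with compound at 5 concentrations in 10-fold steps over a compound-specific 10,000-fold range, incubated 72 h, and read for CellTox Green fluorescence (485/520 nm) followed by CellTiter-Glo luminescence. Each value is the normalised signal at a single concentration.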

HCC1143 = test system: HCC1143
Summary of the method: as §1

BT-549 = test system: BT-549
Summary of the method: as §1

MDA-MB-453 = test system: MDA-MB-453
Summary of the method: as §1

CAL-148 = test system: CAL-148
Summary of the method: as §1

DU-4475 = test system: DU-4475
Summary of the method: as §1

MDA-MB-231 = test system: MDA-MB-231
Summary of the method: as §1

SK-BR-3 = test system: SK-BR-3
Summary of the method: as §1

BT-474 = test system: BT-474
Summary of the method: as §1

MCF-10A = test system: MCF-10A
Summary of the method: as §1

MDA-MB-468 = test system: MDA-MB-468
Summary of the method: as §1

HDQ-P1 = test system: HDQ-P1
Summary of the method: as §1

Hs578T = test system: Hs578T
Summary of the method: as §1

CAL-120 = test system: CAL-120
Summary of the method: as §1

CAL-85-1 = test system: CAL-85-1
Summary of the method: as §1

MFM-223 = test system: MFM-223
Summary of the method: as §1

HCC1937 = test system: HCC1937
Summary of the method: as §1

CAL-51 = test system: CAL-51
Summary of the method: as §1

HCC1599 = test system: HCC1599
Summary of the method: as §1

Q: Which results are given for `C=CC[C@@H]1/C=C(\C)C[C@H](C)C[C@H](OC)[C@H]2O[C@@](O)(C(=O)C(=O)N3CCCC[C@H]3C(=O)O[C@H](/C(C)=C/[C@@H]3CC[C@@H](O)[C@H](OC)C3)[C@H](C)[C@@H](O)CC1=O)[C@H](C)C[C@@H]2OC` [Tacrolimus] (10 nM)?
A: normalised response (MDA-MB-436): 106%; normalised response (HCC1143): 103%; normalised response (BT-549): 101%; normalised response (MDA-MB-453): 109%; normalised response (CAL-148): 97.4%; normalised response (DU-4475): 105%; normalised response (MDA-MB-231): 100%; normalised response (SK-BR-3): 119%; normalised response (BT-474): 105%; normalised response (MCF-10A): 103%; normalised response (MDA-MB-468): 97.6%; normalised response (HDQ-P1): 100%; normalised response (Hs578T): 103%; normalised response (CAL-120): 97.7%; normalised response (CAL-85-1): 99%; normalised response (MFM-223): 98.8%; normalised response (HCC1937): 100%; normalised response (CAL-51): 110%; normalised response (HCC1599): 102%

Q: `COc1cc(Nc2ncc3c(n2)-c2ccc(Cl)cc2C(c2c(F)cccc2OC)=NC3)ccc1C(=O)O` [Alisertib] (1 nM) was tested. Which normalised response (MDA-MB-436) did it give?
A: The normalised response was 99%.

Q: What about the normalised response (HCC1143) of the same compound?
A: The normalised response was 91.6%.

Q: What about the normalised response (BT-549) of the same compound?
A: Its normalised response is 95.6%.

Q: And the normalised response (MDA-MB-453)?
A: The normalised response was 95.9%.

Q: What about the normalised response (CAL-148) of the same compound?
A: The normalised response was 89.3%.

Q: And the normalised response (DU-4475)?
A: Its normalised response is 97%.

Q: What about the normalised response (MDA-MB-231) of the same compound?
A: Its normalised response is 93.3%.

Q: What about the normalised response (SK-BR-3) of the same compound?
A: The normalised response was 94.2%.

Q: And the normalised response (BT-474)?
A: Its normalised response is 98.9%.

Q: What about the normalised response (MCF-10A) of the same compound?
A: Its normalised response is 84%.

Q: And the normalised response (MDA-MB-468)?
A: Its normalised response is 95.9%.

Q: What about the normalised response (HDQ-P1) of the same compound?
A: Its normalised response is 94.7%.

Q: What about the normalised response (Hs578T) of the same compound?
A: The normalised response was 95.6%.

Q: And the normalised response (CAL-120)?
A: Its normalised response is 96.7%.

Q: What about the normalised response (CAL-85-1) of the same compound?
A: The normalised response was 91.9%.

Q: What about the normalised response (MFM-223) of the same compound?
A: Its normalised response is 92.9%.

Q: What about the normalised response (HCC1937) of the same compound?
A: The normalised response was 88.4%.

Q: What about the normalised response (CAL-51) of the same compound?
A: The normalised response was 116%.

Q: What about the normalised response (HCC1599) of the same compound?
A: Its normalised response is 90.2%.

Q: With `COc1cc(Nc2ncc3c(n2)-c2ccc(Cl)cc2C(c2c(F)cccc2OC)=NC3)ccc1C(=O)O` [Alisertib] (10 nM) as the compound, how does the normalised response (MDA-MB-436) read?
A: The normalised response was 89.5%.

Q: What about the normalised response (HCC1143) of the same compound?
A: Its normalised response is 93.9%.

Q: What about the normalised response (BT-549) of the same compound?
A: Its normalised response is 96%.

Q: And the normalised response (MDA-MB-453)?
A: Its normalised response is 88.3%.

Q: And the normalised response (CAL-148)?
A: Its normalised response is 91.9%.

Q: And the normalised response (DU-4475)?
A: Its normalised response is 98.2%.

Q: What about the normalised response (MDA-MB-231) of the same compound?
A: Its normalised response is 95.3%.

Q: And the normalised response (SK-BR-3)?
A: Its normalised response is 70.4%.

Q: And the normalised response (BT-474)?
A: The normalised response was 93.4%.

Q: And the normalised response (MCF-10A)?
A: The normalised response was 93%.

Q: And the normalised response (MDA-MB-468)?
A: The normalised response was 87.7%.

Q: And the normalised response (HDQ-P1)?
A: The normalised response was 97.1%.

Q: And the normalised response (Hs578T)?
A: Its normalised response is 97%.

Q: What about the normalised response (CAL-120) of the same compound?
A: The normalised response was 96.1%.

Q: And the normalised response (CAL-85-1)?
A: Its normalised response is 94.4%.

Q: And the normalised response (MFM-223)?
A: The normalised response was 88.6%.

Q: What about the normalised response (HCC1937) of the same compound?
A: Its normalised response is 95.9%.

Q: What about the normalised response (CAL-51) of the same compound?
A: Its normalised response is 86.4%.

Q: And the normalised response (HCC1599)?
A: Its normalised response is 102%.

Q: Which normalised response (MDA-MB-436) does the source give for `OC[C@H]1O[C@@H](n2cnc3c2N=CNC[C@H]3O)C[C@@H]1O` [Pentostatin] (10 nM) here?
A: Its normalised response is 97.3%.

Q: What about the normalised response (HCC1143) of the same compound?
A: Its normalised response is 98.9%.

Q: What about the normalised response (BT-549) of the same compound?
A: The normalised response was 91.2%.

Q: And the normalised response (MDA-MB-453)?
A: The normalised response was 103%.

Q: And the normalised response (CAL-148)?
A: Its normalised response is 102%.

Q: And the normalised response (DU-4475)?
A: Its normalised response is 104%.

Q: What about the normalised response (MDA-MB-231) of the same compound?
A: The normalised response was 99.2%.

Q: And the normalised response (SK-BR-3)?
A: Its normalised response is 101%.

Q: And the normalised response (BT-474)?
A: The normalised response was 98%.

Q: What about the normalised response (MCF-10A) of the same compound?
A: Its normalised response is 99.9%.

Q: And the normalised response (MDA-MB-468)?
A: The normalised response was 94.4%.

Q: And the normalised response (HDQ-P1)?
A: The normalised response was 100%.

Q: What about the normalised response (Hs578T) of the same compound?
A: The normalised response was 106%.

Q: And the normalised response (CAL-120)?
A: Its normalised response is 98%.

Q: What about the normalised response (CAL-85-1) of the same compound?
A: Its normalised response is 102%.

Q: And the normalised response (MFM-223)?
A: Its normalised response is 101%.

Q: What about the normalised response (HCC1937) of the same compound?
A: The normalised response was 98.2%.

Q: What about the normalised response (CAL-51) of the same compound?
A: The normalised response was 78%.

Q: What about the normalised response (HCC1599) of the same compound?
A: The normalised response was 104%.

Q: `S=c1[nH]cnc2nc[nH]c12` [Mercaptopurine] (10 nM) was tested. Which normalised response (MDA-MB-436) did it give?
A: The normalised response was 98%.

Q: And the normalised response (HCC1143)?
A: The normalised response was 106%.

Q: What about the normalised response (BT-549) of the same compound?
A: The normalised response was 97.7%.

Q: And the normalised response (MDA-MB-453)?
A: Its normalised response is 93%.

Q: And the normalised response (CAL-148)?
A: The normalised response was 83.4%.

Q: What about the normalised response (DU-4475) of the same compound?
A: Its normalised response is 98.5%.

Q: And the normalised response (MDA-MB-231)?
A: The normalised response was 96%.

Q: What about the normalised response (SK-BR-3) of the same compound?
A: Its normalised response is 109%.

Q: What about the normalised response (BT-474) of the same compound?
A: The normalised response was 98.6%.

Q: What about the normalised response (MCF-10A) of the same compound?
A: The normalised response was 103%.

Q: And the normalised response (MDA-MB-468)?
A: Its normalised response is 94.3%.

Q: And the normalised response (HDQ-P1)?
A: Its normalised response is 97.1%.

Q: And the normalised response (Hs578T)?
A: Its normalised response is 100%.

Q: What about the normalised response (CAL-120) of the same compound?
A: Its normalised response is 98.5%.

Q: And the normalised response (CAL-85-1)?
A: The normalised response was 94.5%.

Q: What about the normalised response (MFM-223) of the same compound?
A: The normalised response was 97.2%.

Q: And the normalised response (HCC1937)?
A: Its normalised response is 93.1%.

Q: What about the normalised response (CAL-51) of the same compound?
A: The normalised response was 119%.

Q: And the normalised response (HCC1599)?
A: The normalised response was 89.8%.

Q: Which results are given for `N#CC[C@H](C1CCCC1)n1cc(-c2ncnc3[nH]ccc23)cn1` [Ruxolitinib] (10 nM)?
A: normalised response (MDA-MB-436): 92.2%; normalised response (HCC1143): 100%; normalised response (BT-549): 98.3%; normalised response (MDA-MB-453): 83.8%; normalised response (CAL-148): 86%; normalised response (DU-4475): 97.4%; normalised response (MDA-MB-231): 95.2%; normalised response (SK-BR-3): 81.5%; normalised response (BT-474): 97%; normalised response (MCF-10A): 88.8%; normalised response (MDA-MB-468): 100%; normalised response (HDQ-P1): 94%; normalised response (Hs578T): 96.2%; normalised response (CAL-120): 104%; normalised response (CAL-85-1): 91.2%; normalised response (MFM-223): 92.6%; normalised response (HCC1937): 89.3%; normalised response (CAL-51): 121%; normalised response (HCC1599): 76.5%

Q: Which results are given for `O=C(c1ccc(C(=O)N2CCC(N3CCCC3)CC2)c(Nc2ccccc2)c1)N1CCC(N2CCCC2)CC1` [UNC1215] (3 nM)?
A: normalised response (MDA-MB-436): 93.6%; normalised response (HCC1143): 87.5%; normalised response (BT-549): 96.6%; normalised response (MDA-MB-453): 102%; normalised response (CAL-148): 91%; normalised response (DU-4475): 97.2%; normalised response (MDA-MB-231): 99.1%; normalised response (SK-BR-3): 99%; normalised response (BT-474): 94.4%; normalised response (MCF-10A): 102%; normalised response (MDA-MB-468): 101%; normalised response (HDQ-P1): 97.3%; normalised response (Hs578T): 99.1%; normalised response (CAL-120): 95.3%; normalised response (CAL-85-1): 93.7%; normalised response (MFM-223): 94.5%; normalised response (HCC1937): 91.7%; normalised response (CAL-51): 123%; normalised response (HCC1599): 92.1%
